Measurements: patent publication US20180360786A1, “(R)-CARBIDOPA ALONE OR IN COMBINATION WITH A STEROID FOR TREATING PAIN, INFLAMMATION, AN INFLAMMATORY DISEASE, AN IMMUNE OR AUTOIMMUNE DISEASE AND TUMOUR GROWTH” (PROXIMAGEN GROUP LIMITED, priority 2015, published 2018)
Where two headings read alike, the source gives them in different places. Blank lines part the entries; values can stand above or below the compound they belong to.

Columns and labels:
[1] = system: CFA induced hypersensitivity; test: CFA induced hypersensitivity in rat, weight bearing (incapacitance tester); type: in vivo; conditions: dosed 24 hours post CFA, 1 and 3 hours post treatment
Method: (§1) Assessment of the anti-hyperalgesic properties of (R)-Carbidopa was determined through measurement of weight bearing following CFA induced hypersensitivity. Naive rats distribute their body weight equally between the two hind paws. However, when the injected (left) hind paw is painful, the weight is re-distributed so that less weight is put on the affected paw (decrease in weight bearing on injured paw). Weight bearing through each hind limb was measured using a rat incapacitance tester (Linton Instruments, UK). Rats were placed in the incapacitance tester with the hind paws on separate sensors and the average force exerted by both hind limbs was recorded over 4 seconds. The injection of CFA also induces an oedema that can be assessed by paw volume; this is measured using a plethysmometer. The rat's hind paw is placed into the cylinder containing a solution and the volume of displaced liquid determines the paw volume. Naive male, Sprague Dawley rats were acclimatised with food and water available ad libitum. Habituation to the incapacitance tester was performed. Baseline weight bearing and paw volume recordings were taken prior to induction of insult. Inflammatory hypersensitivity was induced by intraplantar injection of CFA (100 μl of 1 mg/ml solution) into the left hind paw. A pre-treatment weight bearing and paw volume measurement was taken to assess hypersensitivity 23 hours post-CFA. Animals were then ranked and randomised according to CFA window in a Latin square design. […] Data were analysed by comparing treatment groups to the vehicle control group at each time point. Weight bearing (g) readings were taken for both right and left hind paws and the difference calculated. Data is expressed as % reversal of the hypersensitivity to pain. Paw Volume (mL) readings were taken for the left hind paws. Data are expressed as % reversal of the oedema. Calculation: (post dose reading−pre dose reading)/(naïve reading−pre dose reading)×100, where naive weight bearing difference−pre dose weight bearing difference is defined as the CFA window to be reversed. […]

[2] = biological target: T1, human VAP-1 (SSAO) (Homo sapiens, UniProt Q16853); test: In vitro determination of human VAP-1 (SSAO) inhibition (HRP-coupled Amplex Red, benzylamine substrate); type: biochemical; conditions: for IC50: purified recombinant human VAP-1 (SSAO), benzylamine 100 μM, room temperature, about 15 min pre-incubation
T1 construct: made in house
T1 sequence (Q16853 29-763 limits assumed): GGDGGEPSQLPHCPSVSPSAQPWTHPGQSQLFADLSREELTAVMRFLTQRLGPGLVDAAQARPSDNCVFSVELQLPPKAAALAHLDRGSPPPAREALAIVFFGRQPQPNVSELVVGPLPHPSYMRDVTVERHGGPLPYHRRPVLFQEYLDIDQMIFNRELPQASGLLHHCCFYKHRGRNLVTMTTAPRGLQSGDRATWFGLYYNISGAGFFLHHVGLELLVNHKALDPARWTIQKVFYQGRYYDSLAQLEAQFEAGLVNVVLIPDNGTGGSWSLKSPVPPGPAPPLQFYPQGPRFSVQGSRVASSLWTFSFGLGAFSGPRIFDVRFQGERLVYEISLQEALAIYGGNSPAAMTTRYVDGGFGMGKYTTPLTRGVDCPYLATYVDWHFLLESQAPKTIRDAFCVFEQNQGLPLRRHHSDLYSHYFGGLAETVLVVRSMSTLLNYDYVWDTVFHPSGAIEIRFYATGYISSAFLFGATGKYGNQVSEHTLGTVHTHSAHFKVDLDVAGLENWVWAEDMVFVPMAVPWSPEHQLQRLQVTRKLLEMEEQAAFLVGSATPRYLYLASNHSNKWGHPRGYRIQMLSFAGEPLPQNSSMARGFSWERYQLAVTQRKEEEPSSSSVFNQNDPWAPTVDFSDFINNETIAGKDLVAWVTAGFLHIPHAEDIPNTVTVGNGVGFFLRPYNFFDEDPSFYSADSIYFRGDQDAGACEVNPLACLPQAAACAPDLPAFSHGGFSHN
Method: This assay is performed at room temperature with purified recombinantly expressed human VAP-1 (SSAO). Enzyme was prepared essentially as described in Ohman et al. (Protein Expression and Purification 46 (2006) 321-331). The enzyme activity is assayed with benzylamine as substrate by utilizing the production of hydrogen peroxide in a horseradish peroxidise (HRP) coupled reaction. Briefly, test compounds are dissolved in dimethyl sulfoxide (DMSO) to a concentration of 10 mM. Dose-response measurements are assayed by either creating 1:10 serial dilutions in DMSO to produce a 7 point curve or by making 1:3 serial dilutions in DMSO to produce 11 point curves. The top concentrations are adjusted depending on the potency of the compounds and subsequent dilution in reaction buffer yielded a final DMSO concentration ≤2%.
In a horseradish peroxidise (HRP) coupled reaction, hydrogen peroxide oxidation of 10-acetyl-3,7-dihydroxyphenoxazine produces resorufin, which is a highly fluorescent compound (Zhout and Panchuk-Voloshina. Analytical Biochemistry 253 (1997) 169-174; AmplexR Red Hydrogen Peroxide/peroxidise Assay kit, Invitrogen A22188). Enzyme and compounds in 50 mM sodium phosphate, pH 7.4 are set to pre-incubate in flat-bottomed microtiter plates for approximately 15 minutes before initiating the reaction by addition of a mixture of HRP, benzylamine and Amplex reagent. Benzylamine concentration is fixed at a concentration corresponding to the Michaelis constant, determined using standard procedures. Fluorescence intensity is then measured at several time points during 1-2 hours, exciting at 544 nm and reading the emission at 590 nm. […] The inhibition is measured as % decrease of the signal compared to a control without inhibitor (only diluted DMSO). […] Data is fitted to a four parameter logistic model and IC50 values are calculated, for example by using the GraphPad Prism 4 or XLfit 4 programs.

[3] = system: CFA induced paw oedema; test: CFA induced paw oedema in rat, paw volume (plethysmometer); type: in vivo; conditions: dosed 24 hours post CFA, 3 hours post treatment
Method: as §1, with “plethysmometer.” for “plethysmometer. The rat's hind paw is placed into the cylinder containing a solution and the volume of displaced liquid determines the paw volume. Naive male, Sprague Dawley rats were acclimatised with food and water available ad libitum. Habituation to the incapacitance tester was performed. Baseline weight bearing and paw volume recordings were taken prior to induction of insult. Inflammatory hypersensitivity was induced by intraplantar injection of CFA (100 μl of 1 mg/ml solution) into the left hind paw. A pre-treatment weight bearing and paw volume measurement was taken to assess hypersensitivity 23 hours post-CFA. Animals were then ranked and randomised according to CFA window in a Latin square design.”

[4] = biological target: T2, human aromatic L-amino acid decarboxylase (DOPA decarboxylase) (Homo sapiens, UniProt P20711); test: In vitro determination of human aromatic L-amino acid decarboxylase (DOPA decarboxylase) inhibition; type: biochemical; conditions: recombinant human DOPA decarboxylase, 500 μM L-Dopa, 60 min pre-incubation
T2 construct: purchased R&D systems 3564-DC
T2 sequence (P20711 1-480): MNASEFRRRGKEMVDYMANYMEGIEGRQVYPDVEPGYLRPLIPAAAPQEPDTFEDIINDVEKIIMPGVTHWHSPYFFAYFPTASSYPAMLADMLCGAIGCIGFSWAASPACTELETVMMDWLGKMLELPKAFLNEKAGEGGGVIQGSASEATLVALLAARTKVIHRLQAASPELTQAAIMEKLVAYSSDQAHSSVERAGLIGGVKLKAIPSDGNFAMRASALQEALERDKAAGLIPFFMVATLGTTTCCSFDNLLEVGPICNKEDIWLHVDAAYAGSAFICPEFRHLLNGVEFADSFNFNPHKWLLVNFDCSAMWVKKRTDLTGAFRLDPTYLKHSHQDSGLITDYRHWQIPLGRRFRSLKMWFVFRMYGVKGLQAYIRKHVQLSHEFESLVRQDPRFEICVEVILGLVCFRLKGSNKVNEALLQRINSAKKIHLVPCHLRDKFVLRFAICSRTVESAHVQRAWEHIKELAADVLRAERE
Method: The enzyme reaction of human DOPA decarboxylase was carried out according to the manufacture instructions (R&D systems cat#3564-DC). The assay measured the ability of recombinant human DOPA decarboxylase to convert L-Dopa to dopamine. The dopamine product was measured by its absorbance at 340 nm after derivatization with trinitrobenzene sulphuric acid. Briefly, the reaction was carried out in 50 mM HEPES buffer containing 100 mM NaCl pH 7.2 for 30 min and stopped by inactivation of the enzyme at 95° C. for 2 min. The inhibitory assay was performed by measuring the decarboxylase activity of DOPA decarboxylase with 0.8 μg enzyme, 500 μM L-Dopa, and 100 μM pyridoxal phosphate in the presence or absence of a fixed amount of each compound. Test compounds were pre-incubated for 60 min with DOPA decarboxylase before initiating the assay with the addition of the substrate L-DOPA. Dose response curves were generated to determine the concentration required to inhibit 50% of decarboxylase activity (IC50). Compounds were evaluated in duplicate at 7 concentrations. IC50 values were derived by nonlinear regression analysis.

selectivity for SSAO/VAP-1 over the enzyme DOPA decarboxylase ([2]; comparison of VAP-1 and DOPA decarboxylase inhibition): surprising selectivity | IC50 [2]: 148 nM | IC50 ([4]; did not inhibit up to the maximum concentration tested, read-out: inhibition of human aromatic L-amino acid decarboxylase (IC50)): > 3000 nM
SMILES: C[C@](Cc1ccc(O)c(O)c1)(NN)C(=O)O [(R)-Carbidopa, (R)-carbidopa]
inhibition of the hypersensitivity response (weight bearing), Part A, FIG. 1 ([1]; 3-30 mg/kg alone): dose-dependently inhibited the hypersensitivity response | reduction of paw volume (oedema), Part A, FIG. 2 ([3]; 3-30 mg/kg alone): significant reduction of paw volume

IC50 [2]: 142 nM | IC50 ([4]; read-out: IC50 for inhibition of human aromatic L-amino acid decarboxylase): 190 nM
SMILES: C[C@](Cc1ccc(O)c(O)c1)(NN)C(=O)O (single isomer, unassigned) [(S)-Carbidopa]

SMILES: C[C@]12C=CC(=O)C=C1CC[C@@H]1[C@@H]2[C@@H](O)C[C@@]2(C)[C@H]1CC[C@]2(O)C(=O)CO [Prednisolone, prednisolone]
inhibition of the hypersensitivity response (weight bearing), Part B, FIG. 3 ([1]; 0.3-10 mg/kg alone): dose-dependently inhibited the hypersensitivity response

SMILES: COc1ccc2c(c1)c(CC(=O)O)c(C)n2C(=O)c1ccc(Cl)cc1 [Indomethacin, indomethacin]
reversal of the hypersensitivity measured using weight bearing ([1]; indomethacin 10 mg/kg): marked reversal of the hypersensitivity | reduction of paw oedema ([3]; indomethacin 10 mg/kg): significant reduction on paw oedema
